Results on one compound are retold here after US20120130060A1, “Modified antisense oligopeptides with anticancer properties and method of obtaining them” (priority 2010, published 2012).

Data set [1] in a line: ED50 and therapeutic index, comparative characteristics of Anticanum and Taxotere. It is filed as in vivo.
Data set [2] can be described thus: Average lethal intravenous dose in rats. Conditions: both, rat, in vivo.
Excerpt: The calculation of the average lethal dose was made according to B. M. Shtabskiy's methods with the use of the equation:
where: • X1 and X2 are the values of the two extreme of the three doses studied that have an effect on more or less than 50% of the animals; the third dose is the intermediate; • Y1 ? Y2 are the lethality percentages corresponding to doses X1 and X2; • ΣY— is the sum of the three doses studied; the number of doses used in the calculations is equal to 3.
Then d, the average margin of error for the average lethal dose was found through use of the Miller-Tainter formula:
N is the total number of animals in the groups in which even one animal died or survived, and the confidence ranges were established.

`CC(=O)O[C@@]12CO[C@@H]1C[C@H](O)[C@@]1(C)C(=O)[C@H](O)C3=C(C)[C@@H](OC(=O)[C@H](O)[C@@H](NC(=O)OC(C)(C)C)c4ccccc4)C[C@@](O)([C@@H](OC(=O)c4ccccc4)[C@H]21)C3(C)C` [Taxotere]: the ED50 (usually the dose at which the effect has come halfway, by size or by number of responders) in data set [1] amounted to 0.035 mg/kg. Besides, the LD50 (commonly the dose at which mortality reaches 50%) in data set [2] was 0.12 mg/kg.
